The numbers were not newly measured in patent US20210077417A1, “Methods and Compositions Particularly for Treatment of Attention Deficit Disorder” (Purdue Pharma L.P., priority 2018, published 2021), which cites them from elsewhere.

The test system of one data set is patients with ADHD. The note with it: reported.

Counter-ions that a name gives are not always drawn. Like-named read-outs stand apart in the source and are kept apart here.

With `COC(=O)C(c1ccccc1)C1CCCCN1` (stereo not shown) [Methylphenidate hydrochloride], the Solubility result is on record as “slightly soluble” (in acetone); “soluble” (in alcohol); “slightly soluble” (in chloroform); “freely soluble” (in methanol); “freely soluble” (in water).

Consider `COC(=O)C(c1ccccc1)C1CCCCN1` (racemic) [Methylphenidate, dl-threo-methyl-2-phenyl-2-(2-piperidyl)acetate], for which the Stability result reads like this: (acidic solutions) “relatively stable”; (basic solutions) “degraded extensively”. Moreover, the “Degradation amount (hydrolysis of the methyl ester)” value (as the pH increases to 8.9) was “up to 100%”.

lisdexamfetamine dimesylate: in the data set on patients with ADHD, the Duration of action result is “up to 14 hours” and the Onset of action result is on record as “does not have a rapid onset of action”.
